Measured values published in the NIST ThermoML archive (doi:10.1021/je501083d).
± gives the expanded uncertainty stated by the source.

Details: 101.33 kPa, Liquid, Pycnometric method

| mass density (288.2 K) [kg/m3] | mass density (293.2 K) [kg/m3] | mass density (298.2 K) [kg/m3] | mass density (303.2 K) [kg/m3] | mass density (308.2 K) [kg/m3] | mass density (313.2 K) [kg/m3] | SMILES |
| --- | --- | --- | --- | --- | --- | --- |
| 1375.8 ± 2.8 | 1371.5 ± 2.8 | 1368.4 ± 2.8 | 1363.5 ± 2.8 | 1359.3 ± 2.8 | 1355 ± 2.8 | CCCCn1cc[n+](C)c1.F[P-](F)(F)(F)(F)F [1-butyl-3-methylimidazolium hexafluorophosphate] |
| 1205.4 ± 2.5 | 1202.1 ± 2.5 | 1199.4 ± 2.5 | 1195.4 ± 2.5 | 1191.7 ± 2.5 | 1188 ± 2.5 | CCCCn1cc[n+](C)c1.F[B-](F)(F)F [1-butyl-3-methylimidazolium tetrafluoroborate] |

| SMILES | mass density (288.2 K) [kg/m3] | mass density (293.2 K) [kg/m3] | mass density (298.2 K) [kg/m3] | mass density (303.2 K) [kg/m3] | mass density (308.2 K) [kg/m3] | mass density (313.2 K) [kg/m3] |
| --- | --- | --- | --- | --- | --- | --- |
| CCCC[n+]1ccn(C)c1.O=S(=O)([N-]S(=O)(=O)C(F)(F)F)C(F)(F)F | 1443.6 ± 6.1 | 1439.7 ± 6.1 | 1435.6 ± 6 | 1431.3 ± 6 | 1426.8 ± 6 | 1421.9 ± 6 |
